The record followed here is patent publication US9675070B2 (BAYER CROPSCIENCE AG, priority 2013, dated 2017).

Each structure is given as a SMILES string. Structures can show the parent of a compound that is named as a salt.

Series [1] relates to caterpillars of the armyworm (Spodoptera frugiperda). The series can be described thus: Spodoptera frugiperda spray test (SPODFR). It is filed as in vivo. The note with it: application rate 100 g/ha; maize leaf discs; after 7 days. As to the method: Spodoptera frugiperda—Spray Test (SPODFR)
(§1) Solvents: 78.0 parts by weight of acetone
(§2) • 1.5 parts by weight of dimethylformamide Emulsifier: alkylaryl polyglycol ether
(§3) To produce a suitable preparation of active compound, 1 part by weight of active compound is dissolved using the stated parts by weight of solvent and made up with water comprising an emulsifier concentration of 1000 ppm until the desired concentration is reached. To produce further test concentrations, the preparation is diluted with emulsifier-containing water.
Leaf discs of maize (Zea mays) are sprayed with an active compound preparation of the desired concentration and, after drying, populated with caterpillars of the armyworm (Spodoptera frugiperda).
After 7 days, the efficacy in % is determined. 100% means that all of the caterpillars have been killed; 0% means that none of the caterpillars have been killed.

The test system of series [2] is engorged adult female cattle ticks (Boophilus microplus). The series can be described thus: Boophilus microplus injection test (BOOPMI Inj). It is filed as in vivo. The note with it: application rate 20 μg/animal; injection into abdomen; assessed after 7 days. As to the method: Boophilus microplus Injection Test (BOOPMI Inj)
(§4) Solvent: dimethyl sulphoxide
To produce a suitable preparation of active compound, 10 mg of active compound are mixed with 0.5 ml of solvent, and the concentrate is diluted with solvent to the desired concentration.
1 μl of the active compound solution is injected into the abdomen of 5 engorged adult female cattle ticks (Boophilus microplus). The animals are transferred into dishes and kept in a climate-controlled room.
(§5) The activity is assessed after 7 days by laying of fertile eggs. Eggs whose fertility is not visible from the outside are stored in a climate-controlled cabinet until the larvae hatch after about 42 days. An efficacy of 100% means that none of the ticks has laid any fertile eggs; 0% means that all eggs are fertile.

Series [3] concerns adult cat fleas (Ctenocephalides felis). Kind of series: Ctenocephalides felis oral test (CTECFE). The format is in vivo. The note with it: application rate 100 ppm in citrated cattle blood; after 2 days. As to the method: Ctenocephalides felis-Oral Test ([…]) Solvent: dimethyl sulphoxide To produce a suitable preparation of active compound, 10 mg of active compound are mixed with 0.5 ml of dimethyl sulphoxide. Dilution with citrated cattle blood gives the desired concentration. About 20 unfed adult cat fleas (Ctenocephalides felis) are placed into a chamber which is closed at the top and bottom with gauze. A metal cylinder whose bottom end is closed with a parafilm is placed onto the chamber. The cylinder contains the blood/active ingredient preparation, which can be imbibed by the fleas through the parafilm membrane. After 2 days, the kill in % is determined. 100% means that all of the fleas have been killed; 0% means that none of the fleas have been killed.

Series [4] deals with L1 larvae of the Australian sheep blowfly (Lucilia cuprina). The series can be described thus: Lucilia cuprina test (LUCICU). The note with it: application rate 100 ppm; minced horsemeat; after 2 days. The format is in vivo. As to the method:
Lucilia cuprina Test (LUCICU) Solvent: dimethyl sulphoxide To produce a suitable preparation of active compound, 10 mg of active compound are mixed with 0.5 ml of dimethyl sulphoxide, and the concentrate is diluted with water to the desired concentration. About 20 L1 larvae of the Australian sheep blowfly (Lucilia cuprina) are transferred into a test vessel containing minced horsemeat and the active compound preparation of the desired concentration. After 2 days, the kill in % is determined. 100% means that all of the larvae have been killed; 0% means that none of the larvae have been killed.

Series [5] relates to larvae of the mustard beetle (Phaedon cochleariae). Kind of series: Phaedon cochleariae spray test (PHAECO). The note with it: application rate 100 g/ha; Chinese cabbage leaf discs; after 7 days. The format is in vivo. The protocol:
Phaedon cochleariae—Spray Test (PHAECO)
as §1, §2, §3
After 7 days, the efficacy in % is determined. 100% means that all of the beetle larvae have been killed; 0% means that none of the beetle larvae have been killed.

In series [6] the test system is adult houseflies (Musca domestica). Kind of series: Musca domestica test (MUSCDO). The format is in vivo. The note with it: application rate 100 ppm; after 2 days. As to the method: Musca domestica Test (MUSCDO) Solvents: dimethyl sulphoxide To produce a suitable preparation of active compound, 10 mg of active compound are mixed with 0.5 ml of dimethyl sulphoxide, and the concentrate is diluted with water to the desired concentration. Vessels containing a sponge treated with sugar solution and the active compound preparation of the desired concentration are populated with 10 adult houseflies (Musca domestica). After 2 days, the kill in % is determined. 100% means that all of the flies have been killed; 0% means that none of the flies have been killed.

Series [7] relates to cattle ticks (Boophilus microplus) Parkhurst strain, SP-resistant. The series can be described thus: Boophilus microplus dip test (BOOPMI Dip). The format is in vivo. The note with it: application rate 100 ppm, assessed after 7 days. The protocol:
Boophilus microplus—Dip Test (BOOPMI Dip)
Test animals: cattle ticks (Boophilus microplus) Parkhurst strain, SP-resistant
as §4
10 mg of active compound are dissolved in 0.5 ml of dimethyl sulphoxide. To prepare a suitable formulation, the active compound solution is diluted with water to the concentration desired in each case.
This active compound preparation is pipetted into tubes. 8-10 adult engorged female cattle ticks (Boophilus microplus) are transferred into a further tube with holes. The tube is immersed into the active compound formulation, and all ticks are completely wetted. After the liquid has run out, the ticks are transferred on filter discs into plastic dishes and stored in a climate-controlled room.
as §5

The subject of series [8] is Tick nymphs (Amblyomma hebraeum). The series can be described thus: Amblyomma hebaraeum test (AMBYHE), tick nymph immersion. The format is in vivo. Particulars: application rate 100 ppm; immersion one minute; after 42 days. As to the method: Amblyomma hebaraeum Test (AMBYHE) Solvent: dimethyl sulphoxide To produce a suitable preparation of active compound, 10 mg of active compound are mixed with 0.5 ml of dimethyl sulphoxide, and the concentrate is diluted with water to the desired concentration. Tick nymphs (Amblyomma hebraeum) are placed into perforated plastic beakers and immersed in the desired concentration for one minute. The ticks are transferred on filter paper into a Petri dish and stored in a climate-controlled cabinet. After 42 days, the kill in % is determined. 100% means that all of the ticks have been killed; 0% means that none of the ticks have been killed.

Series [9] concerns greenhouse red spider mite (Tetranychus urticae), OP-resistant. The series can be described thus: Tetranychus urticae spray test, OP-resistant (TETRUR). The format is in vivo. Particulars: application rate 100 g/ha; bean leaf discs; after 6 days. The protocol: Tetranychus urticae—Spray Test, OP-Resistant (TETRUR)
as §1, §2, §3
Discs of bean leaves (Phaseolus vulgaris) which are infested by all stages of the greenhouse red spider mite (Tetranychus urticae) are sprayed with an active compound preparation of the desired concentration.
After 6 days, the efficacy in % is determined. 100% means that all of the spider mites have been killed; 0% means that none of the spider mites have been killed.

A short description of series [10]: log P determination by HPLC on reversed-phase column (C18), EEC Directive 79/831 Annex V.A8. It is filed as physicochemical. Particulars: method a): Agilent 1100 LC, Zorbax Eclipse Plus C18, acetonitrile/water with formic acid, gradient 10-95% in 4.25 min, 55° C. As to the method:
Agilent 1100 LC system; 50*4.6 Zorbax Eclipse Plus C18 1.8 micron; mobile phase A: acetonitrile (0.1% formic acid); mobile phase B: water (0.09% formic acid); linear gradient from 10% acetonitrile to 95% acetonitrile in 4.25 min, then 95% acetonitrile for a further 1.25 min; oven temperature 55° C.; flow rate: 2.0 ml/min. Mass detection is carried out via an Agilend MSD system.
^a)Unless indicated otherwise, the following method was used to determine the log P values and masses: The determination of the given log P values was carried out in accordance with EEC Directive 79/831 Annex V.A8 by HPLC (High Performance Liquid Chromatography) on a reversed-phase column (C18). Agilent 1100 LC system; 50*4.6 Zorbax Eclipse Plus C18 1.8 micron; mobile phase A: acetonitrile (0.1% formic acid); mobile phase B: water (0.09% formic acid); linear gradient from 10% acetonitrile to 95% acetonitrile in 4.25 min, then 95% acetonitrile for a further 1.25 min; oven temperature 55° C.; flow rate: 2.0 ml/min. Mass detection is carried out via an Agilend MSD system. ^b)Note for the alternative method for determining log P values and masses: The stated log P values were determined in accordance with EEC Directive 79/831 Annex V.A8 by HPLC (High Performance Liquid Chromatography) using a reversed-phase column (C18). Waters ACQUITY UPLC-MS system; 2.1*50 mm Zorbax Eclipse Plus C18 1.8 μm 600 bar; injection volume: 0.5 ul about 1000 ppm; mobile phase A: acetonitrile (0.1% formic acid); mobile phase B: water (0.085% formic acid); linear gradient from 10% acetonitrile to 95% acetonitrile in 1.5 min, then 95% acetonitrile for a further 0.5 min; oven temperature 60° C.; flow rate: 1.0 ml/min. Mass detection is carried out via a Waters SQD system.

With `CCC(=O)NCc1cc(-c2cn(-c3c(C(F)(F)F)c(C(F)(F)C(F)(F)F)nn3C)nn2)ccc1F` [Ig-5], the efficacy in % in series [1] and in series [5] was 100% each time. For the same molecule, the “efficacy (no laying of fertile eggs)” value in series [2] and in [7] was 100% throughout. For the same molecule, the kill in % in [3], in series [4] and in series [6] was 100% throughout.

As for `CC(=O)NCc1cccc(-c2cnn(-c3c(C(F)(F)F)c(C(F)(F)C(F)(F)F)nn3C)c2)c1` [Ic-16], the “efficacy (no laying of fertile eggs)” value in series [2] and in series [7] was 100% in each case. Further, the kill in % in [3], in [4], in series [8] and in series [6] was 100% in each case. Moreover, the efficacy in % was 100% in series [5] and 90% in [9].

As usually defined, the chromatographic logP is a lipophilicity value derived from retention on a column. With `Cn1nc(C(F)(F)C(F)(F)F)c(C(F)(F)F)c1-n1cnc(-c2cccc(CNC(=O)OC(C)(C)C)c2)c1` [Ib-1, tert-butyl (3-{1-[1-methyl-3-(pentafluoroethyl)-4-(trifluoromethyl)-1H-pyrazol-5-yl]-1H-imidazol-4-yl}benzyl)carbamate], the chromatographic logP in series [10] was found to be 4.21.

`Cn1nc(C(F)(F)C(F)(F)F)c(C(F)(F)F)c1-n1cc(Br)cn1` [4-bromo-2′-methyl-5′-(pentafluoroethyl)-4′-(trifluoromethyl)-2′H-1,3′-bipyrazole]: the chromatographic logP in series [10] came out at 4.17.

In the case of `Cn1nc(C(F)(F)C(F)(F)F)c(C(F)(F)F)c1-n1cc(-c2ccc(F)c(C#N)c2)cn1` [2-fluoro-5-[2′-methyl-5′-(pentafluoroethyl)-4′-(trifluoromethyl)-2′H-1,3′-bipyrazol-4-yl]benzonitrile], in [10], the chromatographic logP was 4.37.

With `Cn1nc(C(F)(F)C(F)(F)F)c(C(F)(F)F)c1-n1cnc(-c2cccc(CN)c2)c1` [1-(3-{1-[1-methyl-3-(pentafluoroethyl)-4-(trifluoromethyl)-1H-pyrazol-5-yl]-1H-imidazol-4-yl}phenyl)methanamine hydrochloride], the chromatographic logP in [10] turned out to be 1.83.

On to `CCC(=O)NCc1cccc(-c2cn(-c3c(C(F)(F)F)c(C(F)(F)C(F)(F)F)nn3C)cn2)c1` [Ib-5, N-(3-{1-[1-methyl-3-(pentafluoroethyl)-4-(trifluoromethyl)-1H-pyrazol-5-yl]-1H-imidazol-4-yl}benzyl)propanamide], for which the chromatographic logP in series [10] is 3.14.

As to `CC(=O)NCc1cc(-c2cn(-c3c(C(F)(F)F)c(C(F)(F)C(F)(F)F)nn3C)nn2)ccc1F` [Ig-1], the “efficacy (no laying of fertile eggs)” value in [2] was 100%; in [7] it was 80%. Besides, the kill in % in series [3], in [4] and in series [6] was 100% throughout. For the same molecule, the efficacy in % in series [5] and in [9] was 100% each time.

As to `Cn1nc(C(F)(F)C(F)(F)F)c(C(F)(F)F)c1-n1cc(-c2cccc(CN)c2)cn1` [1-{3-[2′-methyl-5′-(pentafluoroethyl)-4′-(trifluoromethyl)-2′H-1,3′-bipyrazol-4-yl]phenyl}methanamine hydrochloride (1:1)], in series [10], the chromatographic logP was determined as 1.93.

As for `CCC(=O)NCc1cc(-c2cnn(-c3c(C(F)(F)F)c(C(F)(F)C(F)(F)F)nn3C)c2)ccc1F` [Ib-8, N-{2-fluoro-5-[2′-methyl-5′-(pentafluoroethyl)-4′-(trifluoromethyl)-2′H-1,3′-bipyrazol-4-yl]benzyl}propanamide], in series [10], the chromatographic logP came to 3.27. Also, the “efficacy (no laying of fertile eggs)” value in [2] turned out to be 100%. Further, the kill in % was 95% in series [3] and 100% in series [4]. In [5], the efficacy in % is 100%.

As to `Cn1nc(C(F)(F)C(F)(F)F)c(C(F)(F)F)c1-n1cc(-c2ccc(F)c(CNC(=O)C3CC3)c2)cn1` [Ic-12], the figures for the efficacy in % in [1], in [5] and in series [9] were 100%, 100% and 90%, respectively. Besides, in series [2], the “efficacy (no laying of fertile eggs)” value stood at 100%. For the same molecule, the kill in % in [3], in [4], in series [8] and in series [6] was 100% each time.

Turning to `Cn1nc(C(F)(F)C(F)(F)F)c(C(F)(F)F)c1-n1cnc(I)c1` [5-(4-iodo-1H-imidazol-1-yl)-1-methyl-3-(pentafluoroethyl)-4-(trifluoromethyl)-1H-pyrazole], the chromatographic logP in series [10] was determined as 3.47.
